Laboratory results reported in patent US20250241879A1, “CAPSAICIN SEQUENTIAL DOSING METHOD FOR TREATMENT OF KNEE JOINT PAIN” (priority 2018, published 2025).

Experiments:
[1] = system: human patients with knee osteoarthritis; assay: Procedure pain (NPRS) due to intraarticular trans-capsaicin, Breg pad vs Elasto-Gel wrap cooling (Example 8); type: in vivo; details: four patients (Example 8), 1 mg intraarticular
Procedure: (§1) Human patients experiencing osteoarthritic knee joint pain were subjected to two different protocols for intraarticular administration of trans-capsaicin. Temporary pain expected due to administration of capsaicin was analyzed, along with the intraarticular temperature of the knee joint and the temperature of the patient's skin in the area to be cooled.
One of the protocols utilized a Breg Knee WrapOn Polar Pad (as illustrated in FIG. 1) that utilizes circulating ice-water to achieve cooling, where the pad is placed on skin surrounding the knee in order to cool the knee joint. The other protocol utilized an Elasto-Gel All Purpose Therapy Wrap measuring 6 inches by 24 inches in size, in order to cool the knee joint. A temperature probe was placed into the intraarticular space of the patient's knee joint to measure intraarticular temperature of the knee joint. A temperature probe was also placed on the skin in the area to be cooled in order to measure skin temperature in the area to be cooled.
Experimental procedure used was the same as described in Example 8 herein, except that an Elasto-Gel All Purpose Therapy Wrap measuring 6 inches by 24 inches in size was used to cool the knee joint, in lieu of the ice pack. The Elasto-Gel All Purpose Therapy Wrap was removed from a freezer (approximately 0° F.) just prior to use.

[2] = system: human patients with bilateral knee osteoarthritis; assay: Procedure pain (NPRS) due to intraarticular trans-capsaicin, shortened cooling protocol, Breg pad vs Elasto-Gel wrap (Example 9); type: in vivo; details: four patients (Example 9), 1 mg intraarticular
Procedure: as §1
(§2) One of the protocols utilized a Breg Knee WrapOn Polar Pad (as illustrated in FIG. 1) that utilizes circulating ice-water to achieve cooling, where the pad is placed on skin surrounding the knee in order to cool the knee joint. The other protocol utilized an Elasto-Gel All Purpose Therapy Wrap measuring 6 inches by 24 inches in size to cool the knee joint. The Elasto-Gel All Purpose Therapy Wrap was removed from a freezer (approximately 0° F.) just prior to use. A temperature probe was placed into the intraarticular space of the patient's knee joint to measure intraarticular temperature of the knee joint. A temperature probe was also placed on the skin in the area to be cooled in order to measure skin temperature in the area to be cooled. […]
as §2, with “by 24 inches, whereby the wrap is placed around the knee joint in order” for “by 24 inches in size”, “joint in order to cool” for “inches in size to cool”, “knee joint. At the discretion of the physician performing the procedure, in order to reduce discomfort for the patient, the protocol authorized the physician to instill a volume of 1-2 cc of 2% w/w lidocaine (without epinephrine) into the skin and subcutaneous tissue of the knee at the site of intra-articular probe insertion. A temperature” for “knee joint. A temperature”
Patients receiving cooling of the knee joint using the Elasto-Gel All Purpose Therapy Wrap were subjected to the following procedure: • Placement of intraarticular temperature probe and skin temperature probe. At the discretion of the physician performing the procedure, in order to reduce discomfort for the patient, the protocol authorized the physician to instill a volume of 1-2 cc of 2% w/w lidocaine (without epinephrine) into the skin and subcutaneous tissue of the knee at the site of intra-articular probe insertion. • Cooling using the designated technique was performed for 30 minutes (+/−2 minutes). • Cooling apparatus was removed from the patient's knee. • Intraarticular injection of lidocaine 2% w/w (without epinephrine) 15 mL solution into the patient's knee joint. • Intraarticular injection of the investigational medicinal product (IMP) was performed to deliver trans-capsaicin in the amount of 1 mg. The trans-capsaicin was injected, using the same needle as the lidocaine 2% w/w (without epinephrine), 3 minutes after the intra-articular injection of lidocaine 2% w/w (without epinephrine). The IMP was provided as a pre-filled syringe containing 2 mL of fluid containing trans-capsaicin at a concentration of 0.5 mg/mL. • Knee joint was flexed and extended five times over 1 minute to ensure appropriate distribution of IMP. • The temperature probe was removed approximately 30 minutes after removal of the cooling apparatus.
Pain due to injection of trans-capsaicin was assessed on a Numerical Pain Rating scale (0-10) for 75 minutes after injection of trans-capsaicin. A verbal NPRS was used to assess procedure pain during the study. […]

[3] = Ice-Gel Pack (Elasto-Gel wrap), 30 min
[4] = Ice-Gel Pack (Elasto-Gel wrap), 50 min
[5] = Ice-Gel Pack (Elasto-Gel wrap), 70 min
[6] = Ice-Gel Pack (Elasto-Gel wrap), 80 min
[7] = Ice-Gel Pack (Elasto-Gel wrap), 90 min
[8] = Ice-Gel Pack (Elasto-Gel wrap), 100 min
[9] = Ice-Gel Pack (Elasto-Gel wrap), 110 min
[10] = Ice-Gel Pack (Elasto-Gel wrap), Baseline
[11] = Standard Cooling Device (Breg pad), 30 min
[12] = Standard Cooling Device (Breg pad), 50 min
[13] = Standard Cooling Device (Breg pad), 70 min
[14] = Standard Cooling Device (Breg pad), 80 min
[15] = Standard Cooling Device (Breg pad), 90 min
[16] = Standard Cooling Device (Breg pad), 100 min
[17] = Standard Cooling Device (Breg pad), 110 min
[18] = Standard Cooling Device (Breg pad), Baseline

COc1cc(CNC(=O)CCCCC=CC(C)C)ccc1O [trans-capsaicin, N-[(4-hydroxy-3-methoxyphenyl)methyl]-8-methylnon-6-enamide]
Knee Pain (NPRS) ([1]; Ice-Gel Pack (Elasto-Gel wrap), 20 min): 0.8 (+/−0.5)
Knee Pain (NPRS) [1, 3]: 0.5 (+/−0.6)
Knee Pain (NPRS) [1, 4]: 0.8 (+/−1.0)
Knee Pain (NPRS) [1, 5]: 4.8 (+/−3.2)
Knee Pain (NPRS) [1, 6]: 4.3 (+/−3.0)
Knee Pain (NPRS) [1, 7]: 3.0 (+/−1.8)
Knee Pain (NPRS) [1, 8]: 2.8 (+/−1.5)
Knee Pain (NPRS) [1, 9]: 2.8 (+/−2.1)
Knee Pain (NPRS) ([1]; Ice-Gel Pack (Elasto-Gel wrap), 120 min): 4.5 (+/−3.3)
Knee Pain (NPRS) ([1]; Ice-Gel Pack (Elasto-Gel wrap), 130 min): 3.0 (+/−1.4)
Knee Pain (NPRS) [1, 10]: 1.0 (+/−0.8)
Knee Pain (NPRS) ([1]; Standard Cooling Device (Breg pad), 20 min): 0.5 (+/−0.6)
Knee Pain (NPRS) [1, 11]: 0.5 (+/−0.6)
Knee Pain (NPRS) [1, 12]: 0.8 (+/−1.0)
Knee Pain (NPRS) [1, 13]: 2.5 (+/−3.7)
Knee Pain (NPRS) [1, 14]: 2.5 (+/−3.0)
Knee Pain (NPRS) [1, 15]: 2.5 (+/−2.4)
Knee Pain (NPRS) [1, 16]: 1.8 (+/−1.5)
Knee Pain (NPRS) [1, 17]: 1.8 (+/−1.5)
Knee Pain (NPRS) ([1]; Standard Cooling Device (Breg pad), 120 min): 1.3 (+/−1.3)
Knee Pain (NPRS) ([1]; Standard Cooling Device (Breg pad), 130 min): 1.5 (+/−1.0)
Knee Pain (NPRS) [1, 18]: 0.5 (+/−0.6)
Knee Pain (NPRS) [2, 3]: 0.0 (+/−0.0)
Knee Pain (NPRS) ([2]; Ice-Gel Pack (Elasto-Gel wrap), 40 min): 0.0 (+/−0.0)
Knee Pain (NPRS) [2, 4]: 1.5 (+/−2.4)
Knee Pain (NPRS) ([2]; Ice-Gel Pack (Elasto-Gel wrap), 60 min): 2.8 (+/−3.1)
Knee Pain (NPRS) [2, 5]: 1.0 (+/−0.8)
Knee Pain (NPRS) [2, 6]: 1.8 (+/−2.9)
Knee Pain (NPRS) [2, 7]: 2.5 (+/−2.9)
Knee Pain (NPRS) [2, 8]: 1.8 (+/−2.9)
Knee Pain (NPRS) [2, 9]: 0.8 (+/−1.5)
Knee Pain (NPRS) [2, 10]: 0.3 (+/−0.5)
Knee Pain (NPRS) [2, 11]: 0.0 (+/−0.0)
Knee Pain (NPRS) ([2]; Standard Cooling Device (Breg pad), 40 min): 0.5 (+/−1.0)
Knee Pain (NPRS) [2, 12]: 3.8 (+/−2.9)
Knee Pain (NPRS) ([2]; Standard Cooling Device (Breg pad), 60 min): 1.8 (+/−2.4)
Knee Pain (NPRS) [2, 13]: 1.0 (+/−2.0)
Knee Pain (NPRS) [2, 14]: 2.0 (+/−4.0)
Knee Pain (NPRS) [2, 15]: 1.5 (+/−2.4)
Knee Pain (NPRS) [2, 16]: 0.5 (+/−1.0)
Knee Pain (NPRS) [2, 17]: 2.0 (+/−4.0)
Knee Pain (NPRS) [2, 18]: 0.0 (+/−0.0)
